Tested on: 171881-019-R-J1-PDC tumor spheroids, viability
Assay: Anticancer human tumor 171881-019-R-J1-PDC patient-derived invasive breast carcinoma cell line growth inhibition [GQUAD]
Conditions: spheroids with HUVEC and MSC; for IC50: curve of first compound; for viability, T/C: stronger effect = lower value
Summary of the method: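 Tumor cells were grown as complex spheroids with HUVEC endothelial cells and mesenchymal stem cells as stroma. G-quadruplex stabilizers were combined with targeted agents over half-log dilutions from near the clinical Cmax, or from 10 microM.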

[1] = second compound 0.0316 µM, first compound 0.0316 µM
[2] = second compound 0.0316 µM, first compound 0.1 µM
[3] = second compound 0.0316 µM, first compound 0.316 µM
[4] = second compound 0.0316 µM, first compound 1 µM
[5] = second compound 0.0316 µM, first compound 3.16 µM
[6] = second compound 0.0316 µM, first compound 10 µM
[7] = second compound 0.1 µM, first compound 0.0316 µM
[8] = second compound 0.1 µM, first compound 0.1 µM
[9] = second compound 0.1 µM, first compound 0.316 µM
[10] = second compound 0.1 µM, first compound 1 µM
[11] = second compound 0.1 µM, first compound 3.16 µM
[12] = second compound 0.1 µM, first compound 10 µM
[13] = second compound 0.316 µM, first compound 0.0316 µM
[14] = second compound 0.316 µM, first compound 0.1 µM
[15] = second compound 0.316 µM, first compound 0.316 µM
[16] = second compound 0.316 µM, first compound 1 µM
[17] = second compound 0.316 µM, first compound 3.16 µM
[18] = second compound 0.316 µM, first compound 10 µM
[19] = second compound 1 µM, first compound 0.0316 µM
[20] = second compound 1 µM, first compound 0.1 µM
[21] = second compound 1 µM, first compound 0.316 µM
[22] = second compound 1 µM, first compound 1 µM
[23] = second compound 1 µM, first compound 3.16 µM
[24] = second compound 1 µM, first compound 10 µM
[25] = second compound 3.16 µM, first compound 0.0316 µM
[26] = second compound 3.16 µM, first compound 0.1 µM
[27] = second compound 3.16 µM, first compound 0.316 µM
[28] = second compound 3.16 µM, first compound 1 µM
[29] = second compound 3.16 µM, first compound 3.16 µM
[30] = second compound 3.16 µM, first compound 10 µM
[31] = second compound 10 µM, first compound 0.0316 µM
[32] = second compound 10 µM, first compound 0.1 µM
[33] = second compound 10 µM, first compound 0.316 µM
[34] = second compound 10 µM, first compound 1 µM
[35] = second compound 10 µM, first compound 3.16 µM
[36] = second compound 10 µM, first compound 10 µM
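Note: spheroids exposed to compounds for 7 days.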
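Throughout, for viability, T/C: 100% = DMSO vehicle control viability.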

Structure (SMILES): COc1cc(C2c3cc4c(cc3C(OC3OC5COC(C)OC5C(O)C3O)C3COC(=O)C23)OCO4)cc(OC)c1O (centres undefined) + Cc1[nH]c2ccc(F)cc2c1-c1nc2c3cccnc3c3ncccc3c2[nH]1
- IC50 (second compound 0.0316 µM): 946 nM
- IC50 (second compound 0.1 µM): 765 nM
- IC50 (second compound 0.316 µM): 826 nM
- IC50 (second compound 1 µM): 862 nM
- IC50 (second compound 3.16 µM): < 31.6 nM
- IC50 (second compound 10 µM): < 31.6 nM
- viability, T/C [1]: 93.2%
- viability, T/C [2]: 88.2%
- viability, T/C [3]: 74.5%
- viability, T/C [4]: 46.9%
- viability, T/C [5]: 33.3%
- viability, T/C [6]: 22.6%
- viability, T/C [7]: 97.9%
- viability, T/C [8]: 98.4%
- viability, T/C [9]: 77.7%
- viability, T/C [10]: 40.8%
- viability, T/C [11]: 33.3%
- viability, T/C [12]: 24.2%
- viability, T/C [13]: 98.7%
- viability, T/C [14]: 92.2%
- viability, T/C [15]: 72.8%
- viability, T/C [16]: 43.8%
- viability, T/C [17]: 33.3%
- viability, T/C [18]: 23.1%
- viability, T/C [19]: 80.1%
- viability, T/C [20]: 87.6%
- viability, T/C [21]: 66.3%
- viability, T/C [22]: 45.2%
- viability, T/C [23]: 37.7%
- viability, T/C [24]: 23.4%
- viability, T/C [25]: 28.9%
- viability, T/C [26]: 18.7%
- viability, T/C [27]: 22.6%
- viability, T/C [28]: 18.7%
- viability, T/C [29]: 17.7%
- viability, T/C [30]: 11.5%
- viability, T/C [31]: 40%
- viability, T/C [32]: 50.6%
- viability, T/C [33]: 35%
- viability, T/C [34]: 33.5%
- viability, T/C [35]: 26.5%
- viability, T/C [36]: 15.8%

Structure (SMILES): CC1COCCN1c1cc(C2(O)CC3CCC(C2)O3)c2cnn(-c3ccn[nH]3)c2n1 (centres undefined) + Cc1[nH]c2ccc(F)cc2c1-c1nc2c3cccnc3c3ncccc3c2[nH]1
- IC50 (second compound 0.0316 µM): 34.5 nM
- IC50 (second compound 0.1 µM): 38.1 nM
- IC50 (second compound 0.316 µM): 33.8 nM
- IC50 (second compound 1 µM): < 31.6 nM
- IC50 (second compound 3.16 µM): < 31.6 nM
- IC50 (second compound 10 µM): < 31.6 nM
- viability, T/C [1]: 52.8%
- viability, T/C [2]: 20.5%
- viability, T/C [3]: 10.3%
- viability, T/C [4]: 5.52%
- viability, T/C [5]: 4.37%
- viability, T/C [6]: 4.08%
- viability, T/C [7]: 55.6%
- viability, T/C [8]: 20.6%
- viability, T/C [9]: 9.69%
- viability, T/C [10]: 5.6%
- viability, T/C [11]: 3.81%
- viability, T/C [12]: 3.56%
- viability, T/C [13]: 52.1%
- viability, T/C [14]: 20.3%
- viability, T/C [15]: 9.82%
- viability, T/C [16]: 5.18%
- viability, T/C [17]: 4.67%
- viability, T/C [18]: 3.78%
- viability, T/C [19]: 36.9%
- viability, T/C [20]: 15.5%
- viability, T/C [21]: 9.46%
- viability, T/C [22]: 5.53%
- viability, T/C [23]: 5.14%
- viability, T/C [24]: 3.53%
- viability, T/C [25]: 15.7%
- viability, T/C [26]: 10.5%
- viability, T/C [27]: 6.92%
- viability, T/C [28]: 4.31%
- viability, T/C [29]: 4.06%
- viability, T/C [30]: 1.96%
- viability, T/C [31]: 14.8%
- viability, T/C [32]: 12.1%
- viability, T/C [33]: 7.38%
- viability, T/C [34]: 5.1%
- viability, T/C [35]: 4.66%
- viability, T/C [36]: 3.28%

Source: PubChem BioAssay AID2060498 (Molecular Pharmacology Branch, DTP, NCI, 2025)
